pIC50: −log10 of the molar value.
Legend:
ATR (human) = ATR (human) (UniProt Q13535); assay: Alphascreen
BRAF (human) = BRAF (human) (UniProt P15056); assay: KINOMEscan competition binding; conditions: compound 1.0 µM
RIOK2 (human) = RIOK2 (human) (UniProt Q9BVS4); assay: KINOMEscan competition binding; conditions: compound 1.0 µM
MARK4 (human) = MARK4 (human) (UniProt Q96L34); assay: KINOMEscan competition binding; conditions: compound 1.0 µM
HCK (human) = HCK (human) (UniProt P08631); assay: KINOMEscan competition binding; conditions: compound 1.0 µM
Chain of HCK (human) (P08631 whole entry, looked up): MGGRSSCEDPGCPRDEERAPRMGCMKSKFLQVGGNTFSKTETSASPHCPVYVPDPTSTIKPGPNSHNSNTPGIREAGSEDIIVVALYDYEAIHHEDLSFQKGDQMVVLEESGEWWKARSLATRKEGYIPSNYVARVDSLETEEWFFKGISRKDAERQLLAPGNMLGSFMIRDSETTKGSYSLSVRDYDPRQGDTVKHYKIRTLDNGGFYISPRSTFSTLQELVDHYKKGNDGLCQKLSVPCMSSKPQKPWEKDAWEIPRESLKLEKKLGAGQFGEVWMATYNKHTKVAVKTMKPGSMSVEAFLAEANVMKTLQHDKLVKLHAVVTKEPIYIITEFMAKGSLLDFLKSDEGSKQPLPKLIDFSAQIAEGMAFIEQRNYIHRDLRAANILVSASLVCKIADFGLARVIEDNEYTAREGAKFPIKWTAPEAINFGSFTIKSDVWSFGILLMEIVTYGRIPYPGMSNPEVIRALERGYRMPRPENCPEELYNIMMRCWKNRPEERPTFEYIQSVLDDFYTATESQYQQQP

[1] = tested on: ABL1 (human), P00519 [F317L]; assay: KINOMEscan competition binding; conditions: compound 1.0 µM
CDKL3 (human) = CDKL3 (human) (UniProt Q8IVW4); assay: KINOMEscan competition binding; conditions: compound 1.0 µM
[2] = tested on: KIT (human), P10721 [V559D]; assay: KINOMEscan competition binding; conditions: compound 1.0 µM
CSNK2A2 (human) = CSNK2A2 (human) (UniProt P19784); assay: KINOMEscan competition binding; conditions: compound 1.0 µM
MAP3K10 (human) = MAP3K10 (human) (UniProt Q02779); assay: KINOMEscan competition binding; conditions: compound 1.0 µM
PHKG1 (human) = PHKG1 (human) (UniProt Q16816); assay: KINOMEscan competition binding; conditions: compound 1.0 µM
Chain of PHKG1 (human) (Q16816 whole entry, looked up): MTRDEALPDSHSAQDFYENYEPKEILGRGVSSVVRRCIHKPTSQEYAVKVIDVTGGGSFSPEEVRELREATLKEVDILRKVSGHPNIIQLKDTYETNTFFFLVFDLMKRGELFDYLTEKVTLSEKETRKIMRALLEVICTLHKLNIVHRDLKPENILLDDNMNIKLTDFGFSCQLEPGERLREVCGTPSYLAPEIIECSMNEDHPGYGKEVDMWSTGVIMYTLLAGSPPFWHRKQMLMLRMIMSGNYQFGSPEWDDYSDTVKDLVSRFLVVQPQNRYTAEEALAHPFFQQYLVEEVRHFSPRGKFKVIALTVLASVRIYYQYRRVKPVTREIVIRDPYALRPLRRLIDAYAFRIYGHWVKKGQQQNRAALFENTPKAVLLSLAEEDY

MERTK (human) = MERTK (human) (UniProt Q12866); assay: KINOMEscan competition binding; conditions: compound 1.0 µM
RIOK3 (human) = RIOK3 (human) (UniProt O14730); assay: KINOMEscan competition binding; conditions: compound 1.0 µM
[3] = tested on: FLT3 (human), P36888 [K663Q]; assay: KINOMEscan competition binding; conditions: compound 1.0 µM
AURKA (human) = AURKA (human) (UniProt O14965); assay: SelectScreen, TR FRET; conditions: compound 5.0 µM
SRC (human) = SRC (human) (UniProt P12931); assay: SelectScreen, TR FRET; conditions: compound 5.0 µM
Chain of SRC (human) (P12931 whole entry, looked up): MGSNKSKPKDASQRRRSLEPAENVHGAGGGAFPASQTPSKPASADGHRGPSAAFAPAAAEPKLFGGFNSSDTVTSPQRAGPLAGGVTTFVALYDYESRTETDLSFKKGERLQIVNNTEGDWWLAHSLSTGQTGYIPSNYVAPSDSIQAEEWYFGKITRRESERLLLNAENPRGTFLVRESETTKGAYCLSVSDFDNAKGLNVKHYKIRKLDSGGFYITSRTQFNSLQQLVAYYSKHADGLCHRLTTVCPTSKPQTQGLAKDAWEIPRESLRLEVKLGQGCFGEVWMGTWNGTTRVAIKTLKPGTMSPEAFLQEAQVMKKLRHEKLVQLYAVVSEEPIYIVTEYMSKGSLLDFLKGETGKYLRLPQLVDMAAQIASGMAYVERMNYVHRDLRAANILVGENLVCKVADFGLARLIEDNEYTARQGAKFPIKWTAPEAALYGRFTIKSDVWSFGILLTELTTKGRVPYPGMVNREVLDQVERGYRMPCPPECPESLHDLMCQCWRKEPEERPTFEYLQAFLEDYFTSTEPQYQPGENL

NTRK1 (human) = NTRK1 (human) (UniProt P04629); assay: SelectScreen, TR FRET; conditions: compound 5.0 µM
AURKB (human) = AURKB (human) (UniProt Q96GD4); assay: SelectScreen, TR FRET; conditions: compound 5.0 µM
Chain of AURKB (human) (Q96GD4 whole entry, looked up): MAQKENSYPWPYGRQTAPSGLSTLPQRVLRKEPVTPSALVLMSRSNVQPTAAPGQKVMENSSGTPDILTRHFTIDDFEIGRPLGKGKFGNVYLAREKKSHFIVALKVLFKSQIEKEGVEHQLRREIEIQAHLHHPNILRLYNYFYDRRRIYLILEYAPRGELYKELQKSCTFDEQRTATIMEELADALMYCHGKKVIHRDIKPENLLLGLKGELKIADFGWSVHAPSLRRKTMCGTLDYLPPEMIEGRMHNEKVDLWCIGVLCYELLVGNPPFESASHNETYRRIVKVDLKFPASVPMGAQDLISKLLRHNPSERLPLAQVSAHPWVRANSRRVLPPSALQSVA

EPHA1 (human) = EPHA1 (human) (UniProt P21709); assay: SelectScreen, TR FRET; conditions: compound 5.0 µM
Chain of EPHA1 (human) (P21709 whole entry, looked up): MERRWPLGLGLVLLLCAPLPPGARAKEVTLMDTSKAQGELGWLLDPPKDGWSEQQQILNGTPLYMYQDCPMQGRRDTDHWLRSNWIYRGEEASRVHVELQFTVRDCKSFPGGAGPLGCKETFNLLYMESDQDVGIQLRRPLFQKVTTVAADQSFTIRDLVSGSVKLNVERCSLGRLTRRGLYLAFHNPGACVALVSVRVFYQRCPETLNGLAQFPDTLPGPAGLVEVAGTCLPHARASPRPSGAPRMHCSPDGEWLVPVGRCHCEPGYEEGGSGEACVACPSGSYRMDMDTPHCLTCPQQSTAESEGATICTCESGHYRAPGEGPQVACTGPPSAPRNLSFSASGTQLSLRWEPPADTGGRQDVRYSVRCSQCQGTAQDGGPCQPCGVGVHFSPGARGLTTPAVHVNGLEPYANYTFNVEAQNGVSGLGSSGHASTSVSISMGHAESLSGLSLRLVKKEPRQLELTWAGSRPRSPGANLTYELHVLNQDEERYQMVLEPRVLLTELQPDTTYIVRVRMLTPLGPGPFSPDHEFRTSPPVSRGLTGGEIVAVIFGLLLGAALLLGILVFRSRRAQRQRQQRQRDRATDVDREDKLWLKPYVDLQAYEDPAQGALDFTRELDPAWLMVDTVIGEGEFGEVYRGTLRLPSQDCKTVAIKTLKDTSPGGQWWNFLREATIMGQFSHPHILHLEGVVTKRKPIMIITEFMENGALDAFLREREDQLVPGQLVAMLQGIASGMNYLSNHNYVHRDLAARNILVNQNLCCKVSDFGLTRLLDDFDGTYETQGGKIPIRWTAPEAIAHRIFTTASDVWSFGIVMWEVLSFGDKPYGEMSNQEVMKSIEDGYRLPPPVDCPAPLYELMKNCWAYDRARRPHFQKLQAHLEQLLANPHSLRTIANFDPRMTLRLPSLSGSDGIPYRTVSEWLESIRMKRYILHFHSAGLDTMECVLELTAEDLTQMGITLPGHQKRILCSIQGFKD

PKN1 (human) = PKN1 (human) (UniProt Q16512); assay: SelectScreen, TR FRET; conditions: compound 5.0 µM
PDPK1 (human) = PDPK1 (human) (UniProt O15530); assay: SelectScreen, TR FRET; conditions: compound 5.0 µM
MST4 (human) = MST4 (human) (UniProt Q9P289); assay: SelectScreen, TR FRET; conditions: compound 5.0 µM
Chain of MST4 (human) (Q9P289 whole entry, looked up): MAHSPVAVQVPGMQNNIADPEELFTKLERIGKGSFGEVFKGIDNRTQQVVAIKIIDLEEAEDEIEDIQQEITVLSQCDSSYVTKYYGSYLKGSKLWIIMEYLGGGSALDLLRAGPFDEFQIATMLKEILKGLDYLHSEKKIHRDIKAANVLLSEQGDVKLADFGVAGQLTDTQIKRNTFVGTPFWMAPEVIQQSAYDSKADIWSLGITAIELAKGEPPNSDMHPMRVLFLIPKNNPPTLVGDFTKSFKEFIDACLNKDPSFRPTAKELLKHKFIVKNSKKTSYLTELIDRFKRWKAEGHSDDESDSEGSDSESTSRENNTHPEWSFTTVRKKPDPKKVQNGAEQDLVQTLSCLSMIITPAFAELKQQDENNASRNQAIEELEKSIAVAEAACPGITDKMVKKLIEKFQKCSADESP

FRK (human) = FRK (human) (UniProt P42685); assay: SelectScreen, TR FRET; conditions: compound 5.0 µM
Chain of FRK (human) (P42685 whole entry, looked up): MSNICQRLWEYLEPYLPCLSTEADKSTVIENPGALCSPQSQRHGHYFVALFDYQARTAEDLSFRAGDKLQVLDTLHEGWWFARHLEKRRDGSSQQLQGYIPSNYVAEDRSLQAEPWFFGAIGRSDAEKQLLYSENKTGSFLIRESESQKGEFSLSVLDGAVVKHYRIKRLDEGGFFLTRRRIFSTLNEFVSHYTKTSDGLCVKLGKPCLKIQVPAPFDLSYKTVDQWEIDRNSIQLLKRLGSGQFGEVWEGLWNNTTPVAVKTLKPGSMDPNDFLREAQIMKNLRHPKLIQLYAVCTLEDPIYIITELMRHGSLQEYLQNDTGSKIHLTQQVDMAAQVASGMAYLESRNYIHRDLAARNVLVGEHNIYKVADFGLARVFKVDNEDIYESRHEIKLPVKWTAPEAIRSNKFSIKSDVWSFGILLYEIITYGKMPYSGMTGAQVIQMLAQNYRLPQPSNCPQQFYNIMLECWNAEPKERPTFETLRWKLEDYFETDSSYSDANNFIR

TAOK2 (human) = TAOK2 (human) (UniProt Q9UL54); assay: SelectScreen, TR FRET; conditions: compound 5.0 µM
PRKD2 (human) = PRKD2 (human) (UniProt Q9BZL6); assay: SelectScreen, TR FRET; conditions: compound 5.0 µM
YES1 (human) = YES1 (human) (UniProt P07947); assay: SelectScreen, TR FRET; conditions: compound 5.0 µM
ADRBK1 (human) = ADRBK1 (human) (UniProt P25098); assay: SelectScreen, TR FRET; conditions: compound 5.0 µM
Chain of ADRBK1 (human) (P25098 whole entry, looked up): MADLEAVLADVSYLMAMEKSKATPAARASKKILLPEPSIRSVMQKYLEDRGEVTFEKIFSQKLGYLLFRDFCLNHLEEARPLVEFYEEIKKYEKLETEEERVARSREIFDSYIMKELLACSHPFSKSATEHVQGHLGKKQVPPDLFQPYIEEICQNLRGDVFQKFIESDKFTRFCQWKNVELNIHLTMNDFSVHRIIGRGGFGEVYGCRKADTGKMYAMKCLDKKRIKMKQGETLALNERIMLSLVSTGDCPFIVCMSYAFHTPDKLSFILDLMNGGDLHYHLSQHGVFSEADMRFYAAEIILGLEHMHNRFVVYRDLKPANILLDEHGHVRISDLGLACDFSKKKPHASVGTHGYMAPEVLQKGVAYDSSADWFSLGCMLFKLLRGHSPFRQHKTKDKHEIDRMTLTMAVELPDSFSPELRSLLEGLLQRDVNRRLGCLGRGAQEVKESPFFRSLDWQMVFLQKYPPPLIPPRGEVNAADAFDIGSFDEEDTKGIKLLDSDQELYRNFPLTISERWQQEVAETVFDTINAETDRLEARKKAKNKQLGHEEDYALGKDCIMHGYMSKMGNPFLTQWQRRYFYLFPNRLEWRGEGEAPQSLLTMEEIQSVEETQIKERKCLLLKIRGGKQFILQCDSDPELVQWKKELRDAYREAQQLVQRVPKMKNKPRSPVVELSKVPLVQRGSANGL

RET (human) = RET (human) (UniProt P07949); assay: SelectScreen, TR FRET; conditions: compound 5.0 µM
EPHA4 (human) = EPHA4 (human) (UniProt P54764); assay: SelectScreen, TR FRET; conditions: compound 5.0 µM
[4] = tested on: ABL1 (human), P00519 [E255K]; assay: SelectScreen, TR FRET; conditions: compound 5.0 µM
EPHB2 (human) = EPHB2 (human) (UniProt P29323); assay: SelectScreen, TR FRET; conditions: compound 5.0 µM
PRKCI (human) = PRKCI (human) (UniProt P41743); assay: SelectScreen, TR FRET; conditions: compound 5.0 µM
PDGFRA (human) = PDGFRA (human) (UniProt P16234); assay: SelectScreen, TR FRET; conditions: compound 5.0 µM
[5] = tested on: ABL1 (human), P00519 [T315I]; assay: SelectScreen, TR FRET; conditions: compound 5.0 µM
PRKACA (human) = PRKACA (human) (UniProt P17612); assay: SelectScreen, TR FRET; conditions: compound 5.0 µM
TBK1 (human) = TBK1 (human) (UniProt Q9UHD2); assay: SelectScreen, TR FRET; conditions: compound 5.0 µM
PRKCQ (human) = PRKCQ (human) (UniProt Q04759); assay: SelectScreen, TR FRET; conditions: compound 5.0 µM
MAP3K9 (human) = MAP3K9 (human) (UniProt P80192); assay: SelectScreen, TR FRET; conditions: compound 5.0 µM
AKT3 (human) = AKT3 (human) (UniProt Q9Y243); assay: SelectScreen, TR FRET; conditions: compound 5.0 µM
CSNK1G1 (human) = CSNK1G1 (human) (UniProt Q9HCP0); assay: SelectScreen, TR FRET; conditions: compound 5.0 µM

Chain of RIOK2 (human) (Q9BVS4 whole entry, looked up): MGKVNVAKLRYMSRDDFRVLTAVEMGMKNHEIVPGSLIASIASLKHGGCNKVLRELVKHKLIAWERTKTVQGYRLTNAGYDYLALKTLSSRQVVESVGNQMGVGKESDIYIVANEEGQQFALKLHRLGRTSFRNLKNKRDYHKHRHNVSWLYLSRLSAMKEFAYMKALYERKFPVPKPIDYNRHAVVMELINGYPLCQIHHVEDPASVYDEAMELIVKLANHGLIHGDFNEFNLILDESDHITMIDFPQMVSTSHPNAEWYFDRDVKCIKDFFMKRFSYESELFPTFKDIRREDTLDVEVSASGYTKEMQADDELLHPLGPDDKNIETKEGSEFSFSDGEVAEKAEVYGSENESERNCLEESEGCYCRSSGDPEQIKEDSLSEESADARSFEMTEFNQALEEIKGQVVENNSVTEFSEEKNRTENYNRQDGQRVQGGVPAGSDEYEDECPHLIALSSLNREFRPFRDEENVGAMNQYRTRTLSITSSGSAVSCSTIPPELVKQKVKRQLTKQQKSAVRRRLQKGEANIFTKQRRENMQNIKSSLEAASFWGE

`Nc1cc(C(F)(F)F)c(-c2cc(N3CCOCC3)nc(N3CCOCC3)n2)cn1` gave a pIC50 (ATR (human)) of 5.09, an inhibition of binding (BRAF (human)) of 18% and an inhibition of binding (RIOK2 (human)) of 0%. The inhibition of binding (MARK4 (human)) was 0%, the inhibition of binding (HCK (human)) was 0% and the inhibition of binding [1] was 0%. For the same compound, the inhibition of binding (CDKL3 (human)) was 0%, the inhibition of binding [2] was 0% and the inhibition of binding (CSNK2A2 (human)) was 2%. The inhibition of binding (MAP3K10 (human)) was 0%, the inhibition of binding (PHKG1 (human)) was 11% and the inhibition of binding (MERTK (human)) was 0%. It also gave an inhibition of binding (RIOK3 (human)) of 0%, an inhibition of binding [3] of 0% and an inhibition (AURKA (human)) of 34%. For the same compound, the inhibition (SRC (human)) was 10%, the inhibition (NTRK1 (human)) was 9% and the inhibition (AURKB (human)) was 11%. For the same compound, the inhibition (EPHA1 (human)) was -2%, the inhibition (PKN1 (human)) was 9% and the inhibition (PDPK1 (human)) was 4%. The inhibition (MST4 (human)) was -3%, the inhibition (FRK (human)) was 2% and the inhibition (TAOK2 (human)) was 6%. It also gave an inhibition (PRKD2 (human)) of 2%, an inhibition (YES1 (human)) of 12% and an inhibition (ADRBK1 (human)) of 1%. It also gave an inhibition (RET (human)) of -4%, an inhibition (EPHA4 (human)) of 9% and an inhibition [4] of -4%. For the same compound, the inhibition (EPHB2 (human)) was 0%, the inhibition (PRKCI (human)) was 9% and the inhibition (PDGFRA (human)) was 5%. For the same compound, the inhibition [5] was 3%, the inhibition (PRKACA (human)) was 0% and the inhibition (TBK1 (human)) was 7%. The inhibition (PRKCQ (human)) was 5%, the inhibition (MAP3K9 (human)) was 2% and the inhibition (AKT3 (human)) was 3%. It also gave an inhibition (CSNK1G1 (human)) of 1%.

Source: the kinase profiling compilation of Christmann-Franck et al. (2016)
